Experimental data: US5250283A, “Organic contrast agent analog and method of making same” (priority 1992, dated 1993)
Where a name gives a salt, the structure may show the parent alone.

Assay: Thin layer chromatography of bile (metabolism) in rats
Format: in vivo
Details: rat bile, i.v.
Description: Lesser concentrations were found in the other tissues. Excretion of the two compounds were found only in bile with no compound detected in urine. In bile, TFA-IOP reached a maximum concentration of […] with the recovery of 40% of the injection dose during a 90 minute time period (see FIG. 6).

CCC(Cc1c(I)cc(I)c(NC(=O)C(F)(F)F)c1I)C(=O)O (centres unmarked) [TFA-IOP, N-trifluoroacetyl-iopanoic acid]
metabolism, TLC of bile: a vast majority of the injected TFA-IOP was metabolized to a single metabolite | nonmetabolized compound in bile (TLC): No nonmetabolized compound was found
